Where a name gives a salt, the structure may show the parent alone.
What was measured:
human CYP11B2 = target: T1, human CYP11B2 (Homo sapiens, UniProt P19099); assay: Screening test in transgenic fission yeast (S. pombe PE1) expressing human CYP11B2; type: cell-based; design: expressed in transfected cells; settings: S. pombe cells which express human CYP11B2; deoxycorticosterone substrate 100 nM; inhibitor 500 nM; read-out: % Inhibition human hCYP11B2
T1 sequence (P19099 25-503): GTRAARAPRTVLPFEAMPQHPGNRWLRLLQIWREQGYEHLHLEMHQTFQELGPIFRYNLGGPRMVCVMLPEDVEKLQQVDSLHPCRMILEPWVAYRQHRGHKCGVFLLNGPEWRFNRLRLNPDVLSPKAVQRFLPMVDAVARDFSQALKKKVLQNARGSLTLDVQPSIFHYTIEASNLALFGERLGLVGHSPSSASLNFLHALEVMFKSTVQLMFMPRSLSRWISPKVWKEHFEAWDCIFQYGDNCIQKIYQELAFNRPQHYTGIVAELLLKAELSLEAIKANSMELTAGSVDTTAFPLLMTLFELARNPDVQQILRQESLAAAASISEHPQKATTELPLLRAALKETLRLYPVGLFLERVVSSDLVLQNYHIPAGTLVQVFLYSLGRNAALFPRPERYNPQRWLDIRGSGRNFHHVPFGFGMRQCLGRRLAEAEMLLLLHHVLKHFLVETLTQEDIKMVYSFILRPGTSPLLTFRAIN
Method: 492.5 μl of this cell suspension was admixed with 5 μl of inhibitor solution (50 μM of the compound to be tested in ethanol or DMSO) and incubated at 32° C. for 15 min. Controls were admixed with 5 μl of ethanol. […] The test was quenched by extracting the sample with 500 μl of EtOAc. After centrifugation (10,000 g, 2 min), the EtOAc phase was removed and evaporated to dryness. […] The reaction of the substrate to form corticosterone was analyzed by HPTLC (see below).
The quantification of the spots for the substrate deoxycorticosterone and the products corticosterone (and, if detectable, 18-hydroxycorticosterone and aldosterone) was effected with the related evaluation program AIDA. […] The calculation of the conversion rate was effected according to equation 1.
The plate was developed twice with the mobile solvent chloroform:methanol:water (300:20:1). Unlabeled 11-deoxycorticosterone and corticosterone were applied as a reference for the CYP11B1 reaction. For the CYP11B2 reaction, 11-deoxycorticosterone, corticosterone, 18-hydroxycorticosterone and aldosterone were used as references. The detection of the unlabeled references was effected at 260 nm. Subsequently, imaging plates (BAS MS2340, for ^14C samples, Raytest, Straubenhardt, Germany) were exposed to the HPTLC plates for 48 h. The imaging plates were scanned with the phosphoimager system Fuji FLA 3000 (Raytest, Straubenhardt, Germany), and the steroids were quantified.

human CYP17 = target: T2, human CYP17 (Homo sapiens, UniProt P05093); assay: Percent inhibition of CYP17 (membrane fraction of E. coli pJL17/OR); type: biochemical; settings: E. coli which expresses human CYP17; 5 mg/ml protein; progesterone substrate 2.5 μM; inhibitor 2.5 μM; read-out: % Inhibition human CYP17
T2 construct: made in house; host or cells: E. coli pJL17/OR (membrane fraction)
T2 sequence (P05093 1-508): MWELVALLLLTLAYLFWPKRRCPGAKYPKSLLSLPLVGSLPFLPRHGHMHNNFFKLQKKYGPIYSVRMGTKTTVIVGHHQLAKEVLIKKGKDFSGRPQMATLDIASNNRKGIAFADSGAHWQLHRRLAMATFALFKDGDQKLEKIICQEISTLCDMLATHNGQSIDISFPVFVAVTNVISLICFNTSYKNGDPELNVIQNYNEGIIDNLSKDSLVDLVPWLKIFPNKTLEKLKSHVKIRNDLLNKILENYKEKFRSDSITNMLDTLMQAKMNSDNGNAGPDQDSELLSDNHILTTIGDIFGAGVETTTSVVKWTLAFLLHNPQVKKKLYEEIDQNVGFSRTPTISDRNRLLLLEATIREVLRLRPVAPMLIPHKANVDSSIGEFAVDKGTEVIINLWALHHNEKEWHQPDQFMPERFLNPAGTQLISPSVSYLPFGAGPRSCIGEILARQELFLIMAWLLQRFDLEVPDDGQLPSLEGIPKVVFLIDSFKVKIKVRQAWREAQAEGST
Method: The recombinantly altered E. coli strain pJL17/OR, in which human CYP17 and rat NADPH-P450-reductase were coexpressed, was grown and stored according to the method of Ehmer et al. (Ehmer, P. B. et al., J. Steroid Biochem. Mol. Biol. 75: 57-63 (2000)). For isolating the membrane fraction, 5 ml of the bacterial cell suspension with an OD578 of 50 was washed with phosphate buffer (0.05 M; pH 7.4; 1 mM MgCl2; 0.1 mM EDTA and 0.1 mM DTT). The bacteria were removed by centrifugation and resuspended in 10 ml of ice cold TES buffer (0.1 M tris-acetate; pH 7.8; 0.5 mM EDTA; 0.5 M sucrose). Four milligrams of lysozyme in 10 ml of ice cold water was added to obtain a final concentration of 0.2 mg/ml. This was followed by incubation for 30 minutes under continued shaking on ice. The spheroblasts were obtained by a renewed centrifugation step at 12,000 g for 10 min and again resuspended in 3 ml of ice cold phosphate buffer (composition see above, additionally 0.5 mM PMSF).
After freezing and thawing, the cells were lysed on ice with an ultrasonic disintegrator. The whole cells and the cell debris were centrifuged off at 3000 g for 7 min. The supernatant was again centrifuged at 50,000 g for 20 min at 4° C. A membrane pellet sedimented and was resuspended in 2 ml of phosphate buffer (composition see above) with […] by means of an Ultra-Turrax mixer. […] Aliquots with an approximate protein concentration of 5 mg/ml were stored at −70° C. until use.
Control incubations were performed in parallel with 5 μl DMSO without urea. The reaction was started by adding 50 μl of a membrane suspension diluted 1 to 5 in phosphate buffer (0.8 to 1 mg of protein per ml). After thoroughly mixing the components, the mixture was incubated at 37° C. for 30 min.
The steroids were extracted with 1 ml of EtOAc. […] After the centrifugation, 800 μl of the organic phase was removed, placed into a new vessel and evaporated to dryness. The samples were dissolved in 50 μl of a water-methanol mixture (1:1) and analyzed by HPLC. The substrate conversion was calculated from the ratio of the areas of the product peaks (17α-hydroxyprogesterone and 16α-hydroxyprogesterone) to that of the substrate peak. The activity of the inhibitors was calculated from the reduced substrate conversion after the addition of inhibitors in accordance with the following formula: […]

bovine adrenal CYP11B = target: T3, bovine adrenal CYP11B (Bos taurus, UniProt P15150); assay: Percent inhibition of bovine CYP11B (adrenal mitochondria); settings: read-out: % Inhibition bovine bCYP11B, bovine adrenal mitochondria, 1 mg/ml protein; corticosterone substrate 200 μM; inhibitor 1 μM
T3 sequence (P15150 25-503): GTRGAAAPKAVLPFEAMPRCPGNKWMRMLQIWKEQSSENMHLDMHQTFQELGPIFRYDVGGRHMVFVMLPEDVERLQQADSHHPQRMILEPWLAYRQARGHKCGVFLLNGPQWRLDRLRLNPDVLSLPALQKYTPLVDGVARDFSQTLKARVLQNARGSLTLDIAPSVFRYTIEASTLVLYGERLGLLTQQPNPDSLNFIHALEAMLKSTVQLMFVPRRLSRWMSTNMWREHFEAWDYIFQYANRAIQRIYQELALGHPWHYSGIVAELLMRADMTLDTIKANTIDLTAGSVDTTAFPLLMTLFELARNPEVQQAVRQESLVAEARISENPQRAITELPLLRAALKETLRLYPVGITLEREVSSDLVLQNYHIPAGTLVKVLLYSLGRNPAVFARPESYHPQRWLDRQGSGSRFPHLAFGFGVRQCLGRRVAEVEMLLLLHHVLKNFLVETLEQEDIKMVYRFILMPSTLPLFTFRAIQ

melting point [°C] | Compound | also measured
– | Fc1ccc2c(c1)CC/C2=C\c1cnc[nH]1 [Compound 47a, 5-[(E)-(5-Fluoro-2,3-dihydro-1H-indene-1-ylidenemethyl]-1H-imidazolium chloride] | inhibition at 0.5 µM (human CYP11B2): 59%; inhibition at 2.5 µM (human CYP17): 16%; inhibition at 1 µM (bovine adrenal CYP11B): 67%
220 | COc1ccc2c(c1)CC/C2=C/c1cccnc1 (as salt: hydrochloride) [Compound 11b, 3-[(Z)-(5-Methoxy-2,3-dihydro-1H-indane-1-ylidene)methyl]pyridine Hydrochloride] | –
243 | Brc1ccc2c(c1)CC/C2=C/c1cccnc1 (as salt: hydrochloride) [Compound 9b, 3-[(Z)-(5-Bromo-2,3-dihydro-1H-indane-1-ylidene)methyl]pyridine Hydrochloride] | –
234 | Fc1ccc2c(c1)CC/C2=C\c1cccc2cnccc12 (as salt: hydrochloride) [Compound 30a, 5-[(E)-(5-Fluoro-2,3-dihydro-1H-indane-1-ylidene)methyl]isoquinoline Hydrochloride] | –
197 | COc1cc2c(cc1OC)/C(=C/c1cccnc1)CCC2.Cl | –
217 | Cl.N#Cc1ccc2c(c1)/C(=C/c1cnc[nH]1)CCC2 | –
201 | Fc1ccc2c(c1)CC/C2=C/c1cccc2cnccc12 (as salt: hydrochloride) [Compound 30b, 5-[(Z)-(5-Fluoro-2,3-dihydro-1H-indane-1-ylidene)methyl]isoquinoline Hydrochloride] | –
208 | c1cncc(-c2ccc3cccc4c3c2CC4)c1 (as salt: salt) [Compound 50, 3-(1,2-Dihydroacenaphthylene-3-yl)pyridine] | –
238 | Clc1ccc2c(c1)CC/C2=C/c1cccnc1 (as salt: hydrochloride) [Compound 7b, 3-[(Z)-(5-Chloro-2,3-dihydro-1H-indane-1-ylidene)methyl]pyridine Hydrochloride] | –
197 | COc1cc2c(cc1OC)/C(=C/c1ccncc1)CCC2.Cl | –
241 | C(=C1c2ccccc2-c2ccccc21)c1cccnc1.Cl | –
241 | Brc1ccc2c(c1)CC/C2=C\c1cccnc1 (as salt: hydrochloride) [Compound 9a, 3-[(E)-(5-Bromo-2,3-dihydro-1H-indane-1-ylidene)methyl]pyridine Hydrochloride] | –
– | CC(=O)N1CCN(c2ccc(OCC3COC(Cn4ccnc4)(c4ccc(Cl)cc4Cl)O3)cc2)CC1 (stereo not drawn) [Ketoconazole, reference compound] | inhibition at 1 µM (bovine adrenal CYP11B): 78%
231 | Cc1cccc2c1CC/C2=C\c1cccnc1 (as salt: hydrochloride) [Compound 23a, 3-[(E)-(4-Methyl-2,3-dihydro-1H-indane-1-ylidene)methyl]pyridine Hydrochloride] | –

Compound | melting point [°C] | also measured
Brc1ccc2c(c1)CC/C2=C\c1ccncc1 (as salt: hydrochloride) [Compound 10a, 4-[(E)-(5-Bromo-2,3-dihydro-1H-indane-1-ylidene)methyl]pyridine Hydrochloride] | 266 | –
Fc1ccc2c(c1)CC/C2=C/c1cccnc1 (as salt: hydrochloride) [Compound 5b, 3-[(Z)-(5-Fluoro-2,3-dihydro-1H-indane-1-ylidene)methyl]pyridine Hydrochloride] | 245 | –
Fc1ccc2c(c1)CC/C2=C/c1ccncc1 (as salt: hydrochloride) [Compound 6b, 4-[(Z)-(5-Fluoro-2,3-dihydro-1H-indane-1-ylidene)methyl]pyridine Hydrochloride] | 223 | –
Fc1ccc2c(c1)CC/C2=C\c1cnc[nH]1 (as salt: chloride) [Compound 47a, 5-[(E)-(5-Fluoro-2,3-dihydro-1H-indene-1-ylidenemethyl]-1H-imidazolium chloride] | 245 | –
C(=C1\CCc2ccccc21)/c1cnc[nH]1 (as salt: oxalate) [Compound 42b, 5-[(Z)-2,3-Dihydro-1H-ind-1-ylidenemethyl]-1H-imidazolium oxalate] | 196 | –
Fc1ccc2c(c1)CC/C2=C\c1ccncc1 (as salt: hydrochloride) [Compound 6a, 4-[(E)-(5-Fluoro-2,3-dihydro-1H-indane-1-ylidene)methyl]pyridine Hydrochloride] | 224 | –
N#Cc1ccc2c(c1)/C(=C\c1cnc[nH]1)CCC2.O=C(O)C(=O)O | 197 | –
Fc1ccc2c(c1)CC/C2=C\c1cccnc1 (as salt: hydrochloride) [Compound 5a, 3-[(E)-(5-Fluoro-2,3-dihydro-1H-indane-1-ylidene)methyl]pyridine Hydrochloride] | 245 | –

Reference: patent US20090105278A1, “Selective inhibitors of human corticosteroid syntheses” (Universitat Des Saarlandes, priority 2004, published 2009)
